Key:
[1] = test system: human cancer cell lines and normal cells; assay: Extracellular LDH release, panel of cancer cell lines and normal cells; type: cell-based; details: 24 h, 0.1, 1 and 10 μM
Description: Human colon cancer HT29 cells, colon-derived normal fibroblast CCD-18Co cells, lung cancer A549 cells, normal human bronchial epithelial (immortalized with adenovirus 12-SV40 virus hybrid Ad12SV40) BEAS-2B cells, breast cancer MDA-MB-231 cells, normal breast epithelial MCF10A cells, human osteosarcoma U-2OS cells were purchased from ATCC (Manassas, VA, United States). Primary osteoblasts were generated as reported previously ([Buondonno et al., 2016]). HMM and HMC were primary cells stabilized in culture as described ([Aldieri et al., 2004]). The use of primary cells was approved by Ethical Committee of the San Luigi Gonzaga Hospital, Orbassano, (protocol #126/2016). […]
The extracellular release of LDH, considered an index of cell damage and necrosis, was measured spectrophotometrically, as reported ([Riganti et al., 2013b]). […] LDH activity was measured in the extracellular medium and in the cell lysate: 50 μl of extracellular medium or 5 μl of cell lysate were incubated at 37°C with 5 mM NADH. The reaction was started by adding 20 mM pyruvic acid and was monitored for 6 min, measuring absorbance at 340 nm using a Synergy HT Multi-Detection Microplate Reader (Bio-Tek Instruments, Winoosky, MT, United States). […] Both intracellular and extracellular enzyme activities were expressed as μmol NADH oxidized/min/dish. […] IC50 was calculated with the CompuSyn software^1. […]

[2] = test system: caspase 9; assay: Caspase 9 activity in BEAS-2B cell lysates; type: cell-based, Human; details: 0.1 μM, 24 h
Protocol: The activity of caspase 9 and 3 was measured by incubating 20 μg cell lysates with the respective fluorogenic substrates Ac-LEHD-AMC (LEHD-AMC) or DEVD-AMC (DEVD-AMC), as reported ([Pinzón-Daza et al., 2012]). Results were expressed as nmoles AMC/mg protein.
FIGURE 7 Effects of phenol TPP-derivatives on mitochondria-dependent apoptosis. A549 and BEAS-2B cells were incubated 24 h in fresh medium (ctrl) or in medium containing 0.1 μM of 1 or 2. (A,B) The activity of caspase 9 and 3 was measured fluorimetrically, in duplicates. Data are means ± SD (n = 3). For both panels: ^∗p < 0.001 vs. A549 ctrl cells; °p < 0.001 for BEAS-2B cells vs. the corresponding condition in A549 cells. (C,D) Cell cycle distribution, measured in duplicates. Data are means ± SD (n = 3). For both panels: ^∗p < 0.001 vs. A549 ctrl cells: °p < 0.001 for BEAS-2B cells vs. the corresponding condition in A549 cells. (E) Bright field microscope analysis of cells. Magnification: 60 × objective (0.52 numerical aperture); 10 × ocular lens. Bar: 20 μM. The micrographs are representative of three experiments with similar results.

[3] = test system: mitochondrial ATP; assay: Mitochondrial ATP in A549 cells; type: cell-based, Human; details: 0.1 μM, 4 h
Protocol: The amount of ATP was measured on 20 μg of mitochondrial extracts with the ATP Bioluminescent Assay Kit (FL-AA, Sigma Chemical Co.). Data were converted into nmoles/mg mitochondrial proteins, using a calibration curve previously set.
[t] Continuedof three experiments with similar results. (D) Confocal analysis of mitochondrial staining with MitoTracker® Green FM. Magnification: 60 × objective (0.52 numerical aperture); 10 × ocular lens. Bar: 10 μM. The micrographs are representative of three experiments with similar results. (E,F) The electron transport was measured spectrophotometrically in duplicates. ATP levels in mitochondrial extracts was measured by a chemiluminescence-based assay, in duplicates. Data are means ± SD (n = 3). For both panels: ^∗p < 0.001 vs. A549 ctrl cells; °p < 0.001 for BEAS-2B cells vs. the corresponding condition in A549 cells. (G,H) ROS amount in mitochondrial extracts and mitochondrial damage were measured fluorimetrically, in duplicates. Data are means ± SD (n = 3). For both panels: ^∗p < 0.001 vs. A549 ctrl cells; °p < 0.001 for BEAS-2B cells vs. the corresponding condition in A549 cells. There were no statistically significant differences between untreated (ctrl) and compound 1/compound 2-treated BEAS-2B cells for all the parameters analyzed in this figure.

[4] = test system: mitofusin 1 (MFN1) and mitofusin 2 (MFN2); assay: qRT-PCR of mitofusin mRNA in BEAS-2B cells; type: cell-based, Human; details: 0.1 μM, 4 h
Protocol: Supplementary Figure 4 Effects of TPP-derivatives on mitofusin 1 and mitofusin 2 expression.
A549 and BEAS-2B cells were incubated 4 h in fresh medium (ctrl) or with 0.1 µM of 1 and 2.
Expression of mitofusin 1 (MFN1) and mitofusin 2 (MFN2) mRNA was evaluated by qRT-PCR in
triplicates. Data are means ± SD (n=3).
(§1) (1 picture or pasted object on this page, not shown here)

[5] = test system: BEAS-2B cells; assay: Extracellular LDH release; type: cell-based, Human; details: 0.1, 1 or 10 μM, 24 h
Protocol: (§2) The extracellular release of LDH, considered an index of cell damage and necrosis, was measured spectrophotometrically, as reported ([Riganti et al., 2013b]). The extracellular medium was centrifuged at 12,000 × g for 15 min to pellet cellular debris, the cells were washed with fresh medium, detached with 0.01% trypsin/EDTA, re-suspended in 0.2 ml of 82.3 mM triethanolamine phosphate-HCl (pH 7.6), and sonicated on ice with two 10-sec bursts. LDH activity was measured in the extracellular medium and in the cell lysate: 50 μl of extracellular medium or 5 μl of cell lysate were incubated at 37°C with 5 mM NADH. The reaction was started by adding 20 mM pyruvic acid and was monitored for 6 min, measuring absorbance at 340 nm using a Synergy HT Multi-Detection Microplate Reader (Bio-Tek Instruments, Winoosky, MT, United States). The reaction kinetics were linear throughout the time of measurement. Both intracellular and extracellular enzyme activities were expressed as μmol NADH oxidized/min/dish. The results were expressed as percentage of extracellular LDH versus total (intracellular plus extracellular) LDH. Cell viability was measured by the neutral red staining method, as previously reported ([Riganti et al., 2015b]). The absorbance of untreated cells was considered as 100% viability; the results were expressed as percentage of viable cells versus untreated cells. IC50 was calculated with the CompuSyn software^1.
(§3) Supplementary Figure 3. Cytotoxic effects of compound 15 and 16. A549 and BEAS-2B cells were grown in fresh medium (0) or incubated with 0.1, 1 or 10 µM of 15 and 16 for 24 h (panel A) or 72 h (panel B). A. The release of LDH was measured spectrophotometrically in duplicates. Data are means ± SD (n=3). B. Cell viability was measured spectrophotometrically in quadruplicates. Data are […]
as §1

[6] = test system: A549 cells; assay: Extracellular LDH release; type: cell-based, Human; details: 0.1, 1 or 10 μM, 24 h
Protocol: as §2, §3, §1

Row | SMILES | release of LDH in the extracellular medium [1] | activity of caspase 9 [2] | amount of mitochondrial ATP [3] | expression of mitofusin 1 (MFN1) and mitofusin 2 (MFN2) [4] | release of LDH [5] | release of LDH [6]
1 | CC(=O)Oc1ccc(C[P+](c2ccccc2)(c2ccccc2)c2ccccc2)cc1.[Br-] [Compound 1] | dose-dependent increase | remained similar to untreated cells | significant decrease | no changes |  | 
2 | O=C(Oc1ccc(C[P+](c2ccccc2)(c2ccccc2)c2ccccc2)cc1C(F)(F)F)c1ccccc1.[Br-] [Compound 2] | dose-dependent increase | remained similar to untreated cells | significant decrease | no changes |  | 
3 | Oc1ccc(C[P+](c2ccccc2)(c2ccccc2)c2ccccc2)cc1.[Br-] [Compound 15] |  |  |  |  | did not increase the release of LDH | did not increase the release of LDH
4 | Oc1ccc(C[P+](c2ccccc2)(c2ccccc2)c2ccccc2)cc1C(F)(F)F.[Br-] [Compound 16] |  |  |  |  | did not increase the release of LDH | did not increase the release of LDH

— article PMC5994430, “Mitochondrial Delivery of Phenol Substructure Triggers Mitochondrial Depolarization and Apoptosis of Cancer Cells” (Frontiers in Pharmacology, 2018)
